Results published in patent US20240423207A1, “PICOLINAMIDE COMPOUNDS WITH FUNGICIDAL ACTIVITY” (CORTEVA AGRISCIENCE LLC, priority 2014, published 2024).
Like-named read-outs stand apart in the source and are kept apart here.

Columns and labels:
[1] = test system: Puccinia triticina; Synonym: Puccinia recondita f sp. tritici; assay: Wheat Brown Rust (PUCCRT) fungicidal activity on wheat seedlings; assay type: in vivo; details: for pest or weed control at 121.5 g/ha: Low Volume, 121.5 g/H; for pest or weed control at 100 ppm: High Volume
Procedure: Technical grades of materials were dissolved in acetone, which were then mixed with nine volumes of water (H2O) containing 110 ppm Triton X-100. The fungicide solutions were applied onto wheat seedlings using an automated booth sprayer to run-off. All sprayed plants were allowed to air dry prior to further handling. All fungicides were evaluated using the aforementioned method for their activity vs. all target diseases, unless stated otherwise. Wheat leaf blotch and brown rust activity were also evaluated using track spray applications, in which case the fungicides were formulated as EC formulations, containing 0.1% Trycol 5941 in the spray solutions. Wheat plants (variety Yuma) were grown from seed in a greenhouse in 50% mineral soil/50% soil-less Metro mix until the first leaf was fully emerged, with 7-10 seedlings per pot. These plants were inoculated with an aqueous spore suspension of Septoria tritici either prior to or after fungicide treatments. After inoculation the plants were kept in 100% relative humidity (one day in a dark dew chamber followed by two to three days in a lighted dew chamber at 20° C.) to permit spores to germinate and infect the leaf. The plants were then transferred to a greenhouse set at 20° C. for disease to develop. When disease symptoms were fully expressed on the 1st leaves of untreated plants, infection levels were assessed on a scale of 0 to 100 percent disease severity. Percent disease control was calculated using the ratio of disease severity on treated plants relative to untreated plants. Example B: Evaluation of Fungicidal Activity: Wheat Brown Rust (Puccinia triticina; Synonym: Puccinia recondita f sp. tritici; Bayer code PUCCRT): Wheat plants (variety Yuma) were grown from seed in a greenhouse in 50% mineral soil/50% soil-less Metro mix until the first leaf was fully emerged, with 7-10 seedlings per pot. These plants were inoculated with an aqueous spore suspension of Puccinia triticina either prior to or after fungicide treatments. After inoculation the plants were kept in a dark dew room at 22° C. with 100% relative humidity overnight to permit spores to germinate and infect the leaf. The plants were then transferred to a greenhouse set at 24° C. for disease to develop. Fungicide formulation, application and disease assessment followed the procedures as described in the Example A.

[2] = test system: Mycosphaerella graminicola; Anamorph: Septoria tritici; assay: Leaf Blotch of Wheat (SEPTTR) fungicidal activity on wheat seedlings; assay type: in vivo; details: Zymoseptoria tritici; for pest or weed control at 121.5 g/ha: Low Volume, 121.5 g/H
Procedure: Example A: Evaluation of Fungicidal Activity: Leaf Blotch of Wheat (Mycosphaerella graminicola; Anamorph: Septoria tritici; Bayer code […]): Technical grades of materials were dissolved in acetone, which were then mixed with nine volumes of water (H2O) containing 110 ppm Triton X-100. The fungicide solutions were applied onto wheat seedlings using an automated booth sprayer to run-off. All sprayed plants were allowed to air dry prior to further handling. All fungicides were evaluated using the aforementioned method for their activity vs. all target diseases, unless stated otherwise. Wheat leaf blotch and brown rust activity were also evaluated using track spray applications, in which case the fungicides were formulated as EC formulations, containing 0.1% Trycol 5941 in the spray solutions. Wheat plants (variety Yuma) were grown from seed in a greenhouse in 50% mineral soil/50% soil-less Metro mix until the first leaf was fully emerged, with 7-10 seedlings per pot. These plants were inoculated with an aqueous spore suspension of Septoria tritici either prior to or after fungicide treatments. After inoculation the plants were kept in 100% relative humidity (one day in a dark dew chamber followed by two to three days in a lighted dew chamber at 20° C.) to permit spores to germinate and infect the leaf. The plants were then transferred to a greenhouse set at 20° C. for disease to develop. When disease symptoms were fully expressed on the 1st leaves of untreated plants, infection levels were assessed on a scale of 0 to 100 percent disease severity. Percent disease control was calculated using the ratio of disease severity on treated plants relative to untreated plants.

[3] = 24 h, 1 Day Protectant, read-out: PUCCRT 1DP disease control
[4] = 24 h, 1 Day Protectant, read-out: SEPTTR 1DP disease control
[5] = 72 h, 3 Day Curative, read-out: SEPTTR 3DC disease control
[6] = 72 h, 3 Day Curative, read-out: PUCCRT 3DC disease control
[7] = 24 h, High Volume, 100 ppm, 1 Day Protectant, read-out: SEPTTR 1DP disease control
[8] = 72 h, High Volume, 100 ppm, 3 Day Curative, read-out: SEPTTR 3DC disease control

Structure (SMILES)	pest or weed control at 121.5 g/ha [1, 3] [%]	pest or weed control at 121.5 g/ha [2, 4] [%]	pest or weed control at 121.5 g/ha [2, 5] [%]	pest or weed control at 121.5 g/ha [1, 6] [%]	pest or weed control at 100 ppm [1, 3] [%]	pest or weed control at 100 ppm [1, 6] [%]	pest or weed control at 100 ppm [2, 7] [%]	pest or weed control at 100 ppm [2, 8] [%]	pest or weed control at 100 ppm ([2]; 24 h, read-out: SEPTTR 1DP disease control) [%]	pest or weed control at 100 ppm ([2]; 72 h, read-out: SEPTTR 3DC disease control) [%]
COc1ccnc(C(=O)N[C@@H](C)C(=O)O[C@@H](C)C(c2ccc(C)s2)c2ccc(C)s2)c1OC(C)=O [Cmpd 166]	< 80	< 80	< 80							
COc1ccnc(C(=O)N[C@@H](C)C(=O)O[C@@H](C)[C@@H](c2ccccc2)c2ccc(F)cc2)c1OCOC(C)=O [Cmpd 199]	> 80	> 80	> 80	> 80						
COc1ccnc(C(=O)N[C@@H](C)C(=O)O[C@@H](C)C(c2ccc(C)cc2)c2ccc(C)cc2)c1OCOC(C)=O [Cmpd 171]	> 80	> 80	> 80	> 80						
CCc1ccc(C(c2ccc(CC)cc2)[C@H](C)OC(=O)[C@H](C)NC(=O)c2nccc(OC)c2OCOC(C)=O)cc1 [Cmpd 198]	> 80	> 80	> 80	< 80						
COc1ccnc(C(=O)N[C@H](C(=O)O[C@@H](C)C(c2ccc(F)cc2)c2ccc(F)cc2)C(C)C)c1OC(C)=O [Cmpd 189]	> 80	> 80	> 80	< 80						
COc1ccnc(C(=O)N[C@@H](C)C(=O)O[C@@H](C)C(c2cccc(Cl)c2)c2cccc(Cl)c2)c1O [Cmpd 100]					> 80	> 80	> 80	> 80		
COc1ccnc(C(=O)N[C@@H](CC(C)C)C(=O)O[C@@H](C)C(c2ccc(F)cc2)c2ccc(F)cc2)c1OC(C)=O [Cmpd 190]	< 80	< 80	< 80							
COc1ccnc(C(=O)N[C@@H](C)C(=O)O[C@@H](C)C(O)(c2ccc(Cl)cc2F)c2ccc(Cl)cc2F)c1OCOC(C)=O [Cmpd 193]	< 80	> 80	> 80							
COc1ccnc(C(=O)N[C@@H](C)C(=O)O[C@@H](C)C(c2ccc(F)cc2)c2ccc(F)cc2)c1O [Cmpd 92]					> 80	> 80	> 80	> 80		
COc1ccnc(C(=O)N[C@@H](C)C(=O)O[C@@H](C)C(c2ccc(F)cc2)c2ccc(F)cc2)c1OCOC(=O)C(C)C [Cmpd 211]	> 80	> 80	> 80	> 80						
COc1ccnc(C(=O)N[C@@H](C)C(=O)O[C@@H](C)C(O)(c2ccc(Cl)c(Cl)c2)c2ccc(Cl)c(Cl)c2)c1OCOC(C)=O [Cmpd 201]	< 80	> 80	> 80							
CCOC(c1ccccc1)(c1ccccc1)[C@H](C)OC(=O)[C@H](C)NC(=O)c1nccc(OC)c1O [Cmpd 93]					< 80		> 80	< 80		
COc1ccnc(C(=O)N[C@@H](C)C(=O)O[C@@H](C)C(c2ccc(-c3ccccc3)cc2)c2ccc(-c3ccccc3)cc2)c1OC(C)=O [Cmpd 182]			< 80	< 80						
COc1ccnc(C(=O)N[C@@H](C)C(=O)O[C@@H](C)[C@@H](c2ccccc2)c2ccc(C(F)(F)F)cc2)c1OCOC(C)=O [Cmpd 175]	> 80	> 80	> 80	> 80						
COc1ccnc(C(=O)N[C@@H](C)C(=O)O[C@@H](C)C(c2ccc(Cl)c(C)c2)c2ccc(Cl)c(C)c2)c1OCOC(C)=O [Cmpd 203]	> 80	> 80	> 80	< 80						
COc1ccccc1C(c1ccccc1OC)[C@H](C)OC(=O)[C@H](C)NC(=O)c1nccc(OC)c1OCOC(C)=O [Cmpd 191]	> 80	> 80	> 80	> 80						
COc1ccnc(C(=O)N[C@@H](C)C(=O)O[C@@H](C)C(F)(c2ccccc2)c2ccccc2)c1O [Cmpd 97]					< 80		> 80	> 80		
C[C@H](NC(=O)c1ncccc1O)C(=O)O[C@@H](C)C(c1ccc(F)cc1)c1ccc(F)cc1 [Cmpd 110]					> 80		> 80	> 80		
COc1ccnc(C(=O)N[C@@H](C)C(=O)O[C@@H](C)C(c2cccc(Cl)c2)c2cccc(Cl)c2)c1OC(C)=O [Cmpd 157]	> 80	> 80	> 80	> 80						
COc1ccnc(C(=O)N[C@@H](C)C(=O)O[C@@H](C)C(c2cccc(Cl)c2)c2cccc(Cl)c2)c1OCOC(C)=O [Cmpd 160]	> 80	> 80	> 80	< 80						
COc1ccnc(C(=O)NCC(=O)O[C@@H](C)C(c2ccc(F)cc2)c2ccc(F)cc2)c1OCOC(C)=O [Cmpd 183]	> 80	> 80	< 80	> 80						
COc1ccnc(C(=O)N[C@H](C(=O)O[C@@H](C)C(c2ccc(F)cc2)c2ccc(F)cc2)C(C)C)c1OCOC(C)=O [Cmpd 185]	> 80	> 80	> 80	< 80						
COc1ccnc(C(=O)N[C@@H](C)C(=O)O[C@@H](C)C(c2cccs2)c2cccs2)c1OCOC(C)=O [Cmpd 144]	< 80	< 80	< 80	< 80						
COc1ccnc(C(=O)N[C@@H](C)C(=O)O[C@@H](C)C(c2ccc(F)cc2F)c2ccc(F)cc2F)c1O [Cmpd 96]					> 80	> 80	> 80	> 80		
COc1ccnc(C(=O)N[C@@H](C)C(=O)O[C@@H](C)C(c2ccccc2)c2ccccc2)c1O [Cmpd 90, (S)-(S)-1,1-diphenylpropan-2-yl 2-(3-hydroxy-4-methoxypicolinamido)propanoate]					> 80	> 80			> 80	> 80
COc1ccnc(C(=O)NCC(=O)O[C@@H](C)C(c2ccc(F)cc2)c2ccc(F)cc2)c1O [Cmpd 113]					> 80	< 80	> 80	< 80		
